Experiment: Daily oral administration of DHEA to female users of hormonal oral contraceptives
Type: in vivo, human
Conditions: daily oral dosage of around 50 mg
Source text: DHEA can be administered by different routes. Unlike various other known androgens, DHEA is orally active. […] Apart from the ability of DHEA to restore and normalize androgen levels, important significant clinical benefits have been observed on several aspects of sexual function (arousability, responsivity, genital sensation, lubrication), mood and menstrual distress symptoms.

## C[C@]12CC[C@H](O)CC1=CC[C@@H]1[C@@H]2CC[C@]2(C)C(=O)CC[C@@H]12 [DHEA, 3-beta-hydroxyandrost-5-en-17-one]
  estradiol levels: without increasing estradiol levels
  excessively high testosterone levels or clinical symptoms of hyperandrogenicity: without causing excessively high testosterone levels or clinical symptoms of hyperandrogenicity
  normalization of free testosterone: at least 50%
  normalization of total testosterone: normalizes total testosterone completely

From patent publication US10179107B2, “Tablet containing dehydroepiandrosterone (DHEA)” (PANTARHEI BIOSCIENCE B.V., priority 2011, dated 2019)
